For eight compounds, MIC and melting point results are on record in US7973056B2, “Triazole derivative or salt thereof” (Fujifilm Finechemicals Co., Ltd, priority 2008, dated 2011).

Structures are written as SMILES. In brackets after ≈: the same amount, converted by molar mass.

Data set [1] deals with Candida albicans ATCC 10231. Kind of data set: Antifungal activity test (in vitro), MIC. The data set is classed as cell-based. The settings on record: ATCC10231. The method, then:
(§1) Minimum inhibitory concentration (MIC) of each of the compounds obtained in Examples 1 to 12 was measured for respective fungi at MOS Pharm Service, by the methods described in Antimicrobial Agents and Chemotherapy, vol. 3, pp. 40-48 (1973), Antimicrobial Agents and Chemotherapy, vol. 33, pp. 215-222 (1989) and Antimicrobial Agents and Chemotherapy, vol. 38, pp. 2362-2368 (1994). The measuring conditions are shown in the following. In this case, Voriconazol was used as a comparative compound. Candida albicans ATCC 10231 and ATCC 44858; Cultured at 37° C. for 20 hours using fluid Sabouraud medium, and this was used as a cell suspension. Each of the compounds of the invention was adjusted to a concentration of 1% by weight using dimethyl sulfoxide (DMSO) and a medium similar to the respective medium used in the above-mentioned fungal culture, having a final concentration of from 0.001 to 100 μg/ml, was prepared. Each of the inoculation cell suspensions prepared by the above-mentioned methods was inoculated onto this agar plate. […] In this connection, Voriconazol was used as the comparative compound C-1.

Data set [2] has as its system Pityrosporum ovale ATCC 38593. Kind of data set: Antifungal activity test (in vitro), MIC. The data set is classed as cell-based. The settings on record: Malassezia furfur, ATCC38593. The method, then: as §1, with “Cryptococcus neoformans” for “Candida albicans”, “24067, Pityrosporum ovale” for “10231 and”, “38593;” for “44858;”, “2 day” for “20 hours”
Data set [3] concerns Cryptococcus neoformans ATCC 24067. Kind of data set: Antifungal activity test (in vitro), MIC. The data set is classed as cell-based. The settings on record: ATCC24067. The method, then:
as §1, with “Cryptococcus neoformans” for “Candida albicans”, “24067, Pityrosporum ovale” for “10231 and”, “38593;” for “44858;”, “2 day” for “20 hours”

Data set [4] has as its system Microsporum canis ATCC 36299. Kind of data set: Antifungal activity test (in vitro), MIC. The settings on record: ATCC36299. The data set is classed as cell-based. The method, then: as §1, with “Microsporum canis” for “Candida albicans”, “36299;” for “10231 and ATCC 44858;”, “30°” for “37°”, “2 days” for “20 hours”
In data set [5] the test system is Trichophyton mentagrophytes ATCC 9533. Kind of data set: Antifungal activity test (in vitro), MIC. In kind it is cell-based. The settings on record: ATCC9533. The method, then:
as §1, with “Trichophyton mentagrophytes” for “Candida albicans”, “9533;” for “10231 and ATCC 44858;”, “28°” for “37°”, “3 days” for “20 hours”

The test system of data set [6] is Aspergillus fumigatus ATCC 1028. Kind of data set: Antifungal activity test (in vitro), MIC. The data set is classed as cell-based. The settings on record: ATCC1028. The method, then: Minimum inhibitory concentration (MIC) of each of the compounds obtained in Examples 1 to 12 was measured for respective fungi at MOS Pharm Service, by the methods described in Antimicrobial Agents and Chemotherapy, vol. 3, pp. 40-48 (1973), Antimicrobial Agents and Chemotherapy, vol. 33, pp. 215-222 (1989) and Antimicrobial Agents and Chemotherapy, vol. 38, pp. 2362-2368 (1994). The measuring conditions are shown in the following. In this case, Voriconazol was used as a comparative compound.
Aspergillus fumigatus ATCC 1028; Cultured at 28° C. for 2 days using potato dextrose broth, and this was used as a cell suspension.
Each of the compounds of the invention was adjusted to a concentration of 1% by weight using dimethyl sulfoxide (DMSO) and a medium similar to the respective medium used in the above-mentioned fungal culture, having a final concentration of from 0.001 to 100 μg/ml, was prepared. Each of the inoculation cell suspensions prepared by the above-mentioned methods was inoculated onto this agar plate. […] In this connection, Voriconazol was used as the comparative compound C-1.

As a reminder, the MIC is the least concentration at which growth counts as inhibited. A lower MIC goes with a more susceptible organism. What is called melting point is the temperature of the solid-liquid transition. Consider `C[C@@H](N1CCC(c2ccc(F)cn2)CC1)[C@](O)(Cn1cncn1)c1ccc(F)cc1F` [I-2, (2R,3R)-2-(2,4-difluorophenyl)-3-[4-(5-fluoropyridin-2-yl)piperidin-1-yl]-1-(1,2,4-triazol-1-yl)butan-2-ol], for which the melting point was 100 to 102 °C. In data set [1], this compound displayed an MIC of 0.1 µg/mL (≈ 0.232 µM). The same compound displayed an MIC in data set [2] of 0.01 µg/mL (≈ 0.0232 µM). The same compound came in with an MIC in data set [3] of 0.3 µg/mL (≈ 0.695 µM). In data set [4], this compound yielded an MIC of 10 µg/mL (≈ 23.2 µM). In addition, in data set [5], the MIC was 1 µg/mL (≈ 2.32 µM). The compound further gave a minimum inhibitory concentration (MIC) in data set [6] of 10 µg/mL (≈ 23.2 µM).

As for `Cc1ccc(C2=CCN([C@H](C)[C@](O)(Cn3cncn3)c3ccc(F)cc3F)CC2)nc1C` [I-4, (2R,3R)-2-(2,4-difluorophenyl)-3-(5,6-dimethyl-3′,6′-dihydro-2,4′-bipyridin-1′(2′H)-yl)-1-(1,2,4-triazol-1-yl)butan-2-ol], the melting point was in the range of 85.5 to 87.5 °C. Also, 0.3 µg/mL (≈ 0.683 µM) was the least that counted as inhibitory in data set [1] (MIC). Further, the MIC in data set [2] worked out at 10 µg/mL (≈ 22.8 µM). This compound also displayed an MIC in data set [3] of 0.1 µg/mL (≈ 0.228 µM). The same compound returned an MIC in data set [4] of 1 µg/mL (≈ 2.28 µM). In data set [5], this compound had an MIC of 0.3 µg/mL (≈ 0.683 µM). The compound also had a minimum inhibitory concentration (MIC) in data set [6] of 10 µg/mL (≈ 22.8 µM).

With `Cc1ccc(C2=CCN([C@H](C)[C@](O)(Cn3cncn3)c3ccc(F)cc3F)CC2)nc1` [I-5, (2R,3R)-2-(2,4-difluorophenyl)-3-(5-methyl-3′,6′-dihydro-2,4′-bipyridin-1′(2′H)-yl)-1-(1,2,4-triazol-1-yl)butan-2-ol], the melting point was in the range of 115 to 117 °C. Further, 0.1 µg/mL (≈ 0.235 µM) was the least that counted as inhibitory in data set [1] (MIC). This compound also showed a minimum inhibitory concentration (MIC) in data set [2] of 0.003 µg/mL (≈ 0.00705 µM). The compound also returned an MIC in data set [3] of 0.03 µg/mL (≈ 0.0705 µM). Moreover, in data set [4], the MIC is 1 µg/mL (≈ 2.35 µM). In data set [5], this compound yielded a minimal inhibitory concentration (MIC) of 0.1 µg/mL (≈ 0.235 µM). In addition, it took 3 µg/mL (≈ 7.05 µM) to inhibit growth in data set [6] (MIC).

`C[C@@H](N1CC=C(c2ccc(F)cn2)CC1)[C@](O)(Cn1cncn1)c1ccc(F)cc1F` [I-7, (2R,3R)-2-(2,4-difluorophenyl)-3-(5-fluoro-3′,6′-dihydro-2,4′-bipyridin-1′(2′H)-yl)-1-(1,2,4-triazol-1-yl)butan-2-ol] returned a melting point of 148 to 150 °C. In data set [1], this compound returned a minimum inhibitory concentration (MIC) of 0.1 µg/mL (≈ 0.233 µM). In data set [2], this compound had an MIC of 0.01 µg/mL (≈ 0.0233 µM). In addition, the minimal inhibitory concentration (MIC) in data set [3] was determined as 0.3 µg/mL (≈ 0.699 µM). This compound also returned a minimal inhibitory concentration (MIC) in data set [4] of 10 µg/mL (≈ 23.3 µM). In addition, the MIC in data set [5] turned out to be 1 µg/mL (≈ 2.33 µM). In data set [6], this compound gave an MIC of 10 µg/mL (≈ 23.3 µM).

Regarding `C[C@@H](Oc1cc(-c2ccccn2)ccn1)[C@](O)(Cn1cncn1)c1ccc(F)cc1F` [I-9, (2R,3R)-3-(2,4′-bipyridin-2′-yloxy)-2-(2,4-difluorophenyl)-1-(1,2,4-triazol-1-yl)butan-2-ol], the melting point was in the range of 178 to 180 °C. Besides, the lowest concentration to inhibit growth in data set [1] (MIC) was 0.3 µg/mL (≈ 0.709 µM). Besides, inhibition of growth in data set [2] (MIC) required 0.3 µg/mL (≈ 0.709 µM). This compound gave an MIC in data set [3] of 0.3 µg/mL (≈ 0.709 µM). In data set [4], this compound gave a minimum inhibitory concentration (MIC) of 10 µg/mL (≈ 23.6 µM). In data set [5], this compound yielded an MIC of 10 µg/mL (≈ 23.6 µM). This compound also gave an MIC in data set [6] of 30 µg/mL (≈ 70.9 µM).

Consider `C[C@@H](N1CCC=C(c2ccccn2)C1)[C@](O)(Cn1cncn1)c1ccc(F)cc1F` [I-10, (2R,3R)-2-(2,4-difluorophenyl)-3-(5′,6′-dihydro-2,3′-bipyridin-1′(2′H)-yl)-1-(1,2,4-triazol-1-yl)butan-2-ol], for which the melting point is 89 to 92 °C. In data set [1], this compound gave an MIC of 3 µg/mL (≈ 7.29 µM). The lowest concentration to inhibit growth in data set [2] (MIC) was 0.3 µg/mL (≈ 0.729 µM). This compound yielded a minimal inhibitory concentration (MIC) in data set [3] of 1 µg/mL (≈ 2.43 µM). In data set [4], this compound had an MIC of 100 µg/mL (≈ 243 µM). In data set [5], this compound displayed a minimal inhibitory concentration (MIC) of 3 µg/mL (≈ 7.29 µM). In data set [6], this compound returned an MIC of 100 µg/mL (≈ 243 µM).

For the compound `Cc1ccc(C2=CCCN([C@H](C)[C@](O)(Cn3cncn3)c3ccc(F)cc3F)C2)nc1C` [I-11, (2R,3R)-2-(2,4-difluorophenyl)-3-(5,6-dimethyl-5′,6′-dihydro-2,3′-bipyridin-1′(2′H)-yl)-1-(1,2,4-triazol-1-yl)butan-2-ol], the MIC in data set [1] is 100 µg/mL (≈ 228 µM); in data set [2], 0.1 µg/mL (≈ 0.228 µM); in data set [3] it was 0.3 µg/mL (≈ 0.683 µM); in data set [4], 10 µg/mL (≈ 22.8 µM); in data set [5], 10 µg/mL (≈ 22.8 µM); in data set [6], 100 µg/mL (≈ 228 µM).

The compound `C[C@@H](N1CCCC(c2ccccn2)C1)[C@](O)(Cn1cncn1)c1ccc(F)cc1F` (stereo partly drawn) [I-12, (2R,3R)-2-(2,4-difluorophenyl)-3-(3-pyridin-2-ylpiperidin-1-yl)-1-(1,2,4-triazol-1-yl)butan-2-ol] returned a melting point of 75 to 78 °C. In data set [1], this compound came in with an MIC of 0.1 µg/mL (≈ 0.242 µM). Also, the MIC in data set [2] turned out to be 10 µg/mL (≈ 24.2 µM). In data set [3], this compound showed an MIC of 10 µg/mL (≈ 24.2 µM). In addition, in data set [4], the minimal inhibitory concentration (MIC) is 100 µg/mL (≈ 242 µM). In addition, in data set [5], the minimum inhibitory concentration (MIC) was determined as 100 µg/mL (≈ 242 µM). For the same compound, it took 100 µg/mL (≈ 242 µM) to inhibit growth in data set [6] (MIC).
